# Measured values reported in patent US20110224204A1, “DI-SUBSTITUTED PHENYL COMPOUNDS” (priority 2008, published 2011).
# Tested on: not given
# Assay: not given
# Details: not given
row,melting point,SMILES
1,190 to 193 °C,"N#Cc1ccc(-c2ccc(OCc3ccc4ccccc4n3)cc2)c(-c2ccncc2)c1 [Example 1885, 2-(Pyridin-4-yl)-4′-(quinolin-2-ylmethoxy)biphenyl-4-carbonitrile]"

# Tested on: not given
# Assay: not given
# Details: rats; cited from earlier work
SMILES,apomorphine induced stereotypies,haloperidol induced catalepsy,rat brain dopamine levels
COc1ccc(Cc2nccc3cc(OC)c(OC)cc23)cc1OC [papaverine],reduces,increases,reduces

# Molecular target: Human PDE10A1 (Homo sapiens, UniProt Q9Y233)
# Assay: hPDE10A1 Enzyme Inhibition
# Format: biochemical
# Details: [3H]-cAMP substrate; read-out: hPDE10A1 IC50 Band
# Procedure: hPDE10A1 Enzyme Activity: 50 μl samples of serially diluted Human PDE10A1 enzyme were incubated with 50 μl of [^3H]-cAMP for 20 minutes (at 37° C.). Reactions were carried out in Greiner 96 deep well 1 ml master-block. The enzyme was diluted in 20 mM Tris HCl pH7.4 and [^3H]-cAMP was diluted in 10 mM MgCl2, 40 mM Tris.HCl pH 7.4. The reaction was terminated by denaturing the PDE enzyme (at 70° C.) after which [^3H]-5′-AMP was converted to [^3H]-adenosine by adding 25 μl snake venom nucleotidase and incubating for 10 minutes (at 37° C.). Adenosine, being neutral, was separated from charged cAMP or AMP by the addition of 200 μl Dowex resin. Samples were shaken for 20 minutes then centrifuged for 3 minutes at 2,500 r.p.m. 50 μl of supernatant was removed and added to 200 μl of MicroScint-20 in white plates (Greiner 96-well Optiplate) and shaken for 30 minutes before reading on Perkin Elmer TopCount Scintillation Counter.
# hPDE10A1 Enzyme Inhibition: To check inhibition profile 11 μl of serially diluted inhibitor was added to 50 μl of [^3H]-cAMP and 50 ul of diluted Human PDE10A1 and assay was carried out as in the enzyme activity assay. Data was analysed using Prism software (GraphPad Inc).
# Human PDE10A1, sequence (Q9Y233 1-779 isoform Q9Y233-1): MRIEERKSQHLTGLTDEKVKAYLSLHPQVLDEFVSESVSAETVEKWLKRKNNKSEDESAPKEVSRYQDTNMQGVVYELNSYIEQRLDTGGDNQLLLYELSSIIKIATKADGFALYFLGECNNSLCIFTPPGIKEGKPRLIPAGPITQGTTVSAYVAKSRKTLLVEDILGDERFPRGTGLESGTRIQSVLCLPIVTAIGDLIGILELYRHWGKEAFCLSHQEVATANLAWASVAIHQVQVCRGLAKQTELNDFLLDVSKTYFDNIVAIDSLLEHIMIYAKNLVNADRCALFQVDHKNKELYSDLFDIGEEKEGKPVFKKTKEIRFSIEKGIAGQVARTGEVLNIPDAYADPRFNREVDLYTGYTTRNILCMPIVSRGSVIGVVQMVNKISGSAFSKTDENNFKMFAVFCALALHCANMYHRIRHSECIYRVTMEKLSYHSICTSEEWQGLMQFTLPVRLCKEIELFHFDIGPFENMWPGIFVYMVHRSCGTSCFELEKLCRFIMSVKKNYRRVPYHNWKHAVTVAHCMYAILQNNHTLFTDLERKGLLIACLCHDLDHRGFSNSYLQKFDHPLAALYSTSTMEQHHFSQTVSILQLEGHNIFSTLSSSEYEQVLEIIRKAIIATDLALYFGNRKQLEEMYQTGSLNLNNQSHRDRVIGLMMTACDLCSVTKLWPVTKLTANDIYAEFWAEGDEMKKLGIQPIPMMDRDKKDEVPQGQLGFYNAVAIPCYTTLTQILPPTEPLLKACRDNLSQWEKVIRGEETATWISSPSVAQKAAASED
row,SMILES,IC50
1,"Clc1ccc(-c2ccc(OCc3ccc4ccccc4n3)cc2)c(-c2ccncc2)c1 [Example 1876, 2-((4′-Chloro-2′-(pyridin-4-yl)biphenyl-4-yloxy)methyl)quinoline]",> 50 nM
2,"c1ccc(C2CCCCC2)c(-c2ccc(OCc3ccc4ccccc4n3)cc2)c1 [Example 1877, 2-((2′-cyclohexylbiphenyl-4-yloxy)methyl)quinoline]",> 50 nM
3,"CCc1ccc(COc2ccc(-c3ccccc3-c3ccncc3)cc2)nc1 [Example 1878, 5-ethyl-2-((2′-(pyridin-4-yl)biphenyl-4-yloxy)methyl)pyridine]",> 50 nM
4,"CC(C)Oc1ccccc1-c1ccc(OCc2ccc3ccccc3n2)cc1 [Example 1879, 2-((2′-isopropoxybiphenyl-4-yloxy)methyl)quinoline]",> 50 nM
5,"Cc1cc(-c2ccncc2)c(-c2ccc(OCc3ccc4ccccc4n3)cc2)cc1C [Example 1880, 2-((4′,5′-dimethyl-2′-(pyridin-4-yl)biphenyl-4-yloxy)methyl)quinoline]",> 50 nM
6,"Nc1cccc(-c2ccncc2)c1-c1ccc(OCc2ccc3ccccc3n2)cc1 [Example 1881, 6-Pyridin-4-yl-4′-(quinolin-2-ylmethoxy)-biphenyl-2-ylamine]",> 50 nM

# Other lines, results leading:
row,IC50,SMILES
1,> 50 nM,"Cc1cccnc1COc1ccc(-c2ccccc2-c2ccncc2)cc1 [Example 1882, 3-methyl-2-((2′-(pyridin-4-yl)biphenyl-4-yloxy)methyl)pyridine]"
2,> 50 nM,"COc1ccccc1-c1ccc(OCc2ccc3ccccc3n2)cc1 [Example 1883, 2-((2′-methoxybiphenyl-4-yloxy)methyl)quinoline]"
3,> 50 nM,"Cc1cccc(COc2ccc(-c3ccccc3-c3ccncc3)cc2)n1 [Example 1884, 2-methyl-6-((2′-(pyridin-4-yl)biphenyl-4-yloxy)methyl)pyridine]"
4,> 50 nM,"N#Cc1ccc(-c2ccc(OCc3ccc4ccccc4n3)cc2)c(-c2ccncc2)c1 [Example 1885, 2-(Pyridin-4-yl)-4′-(quinolin-2-ylmethoxy)biphenyl-4-carbonitrile]"
5,> 50 nM,"Cc1cccc(-c2ccc(OCc3ccc4ccccc4n3)cc2)c1-c1ccncc1 [Example 1886, 2-(3′-Methyl-2′-pyridin-4-yl-biphenyl-4-yloxymethyl)-quinoline]"
6,≤ 50 nM,"Cc1cnc(COc2ccc(-c3ccccc3-c3ccncc3)cc2)c(C)c1 [Example 1887, 3,5-dimethyl-2-((2′-(pyridin-4-yl)biphenyl-4-yloxy)methyl)pyridine]"
7,> 50 nM,"Fc1cccc(-c2ccc(OCc3ccc4ccccc4n3)cc2)c1-c1ccncc1 [Example 1946, 2-(3′-Fluoro-2′-pyridin-4-ylbiphenyl-4-yloxymethyl)-quinoline]"
8,> 50 nM,"Cc1ccnc(COc2ccc(-c3ccccc3-c3ccncc3)cc2)c1 [Example 1947, 4-methyl-2-((2′-(pyridin-4-yl)biphenyl-4-yloxy)methyl)pyridine]"
